Results as given in US20260317319A1, “NOVEL ERGOLINES AND METHODS OF TREATING MOOD DISORDERS” (Gilgamesh Pharma Inc., priority 2023, published 2026).
Read-outs that look alike come from different tables or passages of the source.

Assays:
in vitro [1] = format: in vitro ADME, human; details: HLM 0.50 mg/mL, NADPH 1 mM, 1 μM compound, pH 7.4, 37° C., 60 min; for microsomal CLint / half-life: human, microsomes; for microsomal CLint: read-out: Intrinsic clearance (Clint); for half-life: read-out: half-life (t1/2)
in vitro [2] = format: in vitro ADME, mouse; details: MLM (male CD-1) 0.50 mg/mL, NADPH 1 mM, 1 μM compound, pH 7.4, 37° C., 60 min; for microsomal CLint / half-life: mouse, microsomes; for microsomal CLint: read-out: Intrinsic clearance (Clint); for half-life: read-out: half-life (t1/2)
Text: MLM Stability Pooled MLM from male CD-1 mice (BIOIVT M00501) were used.

in vitro [3] = format: in vitro ADME, rat; details: RLM (male Sprague-Dawley) 0.50 mg/mL, NADPH 1 mM, 1 μM compound, pH 7.4, 37° C., 60 min; for microsomal CLint / half-life: rat, microsomes; for microsomal CLint: read-out: Intrinsic clearance (Clint); for half-life: read-out: half-life (t1/2)
Text: RLM Stability Pooled RLM from male Sprague-Dawley rats (Xenotech R1000) were used.

5-HT2A receptor = 5-HT2A receptor (Homo sapiens, UniProt P28223); assay: biochemical; format: binding; parameters: expressed in transfected cells; host or cells: HEK293, stably transfected; details: [3H]ketanserin 1 nM; HEK293 stable cell line; 1 h, 25 °C
Description: Affinity of the test compounds for the 5-HT2A receptor was determined in radioligand binding experiments with [^3H]ketanserin by WuXi AppTec (Hong Kong) Limited, using methods adapted from the literature and under conditions described in Table 1.

5-HT2A receptor, sequence (P28223 whole entry): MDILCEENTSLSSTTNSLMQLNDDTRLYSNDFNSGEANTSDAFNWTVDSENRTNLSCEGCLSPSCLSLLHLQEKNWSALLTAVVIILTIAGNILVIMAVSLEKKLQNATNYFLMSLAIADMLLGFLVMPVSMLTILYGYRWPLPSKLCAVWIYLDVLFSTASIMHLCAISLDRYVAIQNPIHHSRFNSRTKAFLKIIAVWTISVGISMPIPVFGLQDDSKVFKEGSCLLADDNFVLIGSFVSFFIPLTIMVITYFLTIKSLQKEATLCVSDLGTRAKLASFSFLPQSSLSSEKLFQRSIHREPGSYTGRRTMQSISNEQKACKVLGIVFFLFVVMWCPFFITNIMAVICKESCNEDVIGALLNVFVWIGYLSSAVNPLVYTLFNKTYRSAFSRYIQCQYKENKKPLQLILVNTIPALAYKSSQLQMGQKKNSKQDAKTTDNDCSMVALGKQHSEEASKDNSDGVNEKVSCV

## CCCN(CC)C(=O)[C@H]1C=C2c3cccc4[nH]cc(c34)C[C@H]2N(Cc2ccccc2)C1 [Compound 86a, (6aR,9S)-7-benzyl-N-ethyl-N-propyl-4,6,6a,7,8,9-hexahydroindolo[4,3-fg]quinoline-9-carboxamide]
In vitro [1]
  microsomal CLint: 95.2 µL/min/mg
  half-life: 14.6 min
In vitro [2]
  microsomal CLint: 1010 µL/min/mg
  half-life: 1.4 min
In vitro [3]
  microsomal CLint: 330 µL/min/mg
  half-life: 4.2 min
5-HT2A receptor
  Ki: 671 nM

## CCN(CC)C(=O)[C@H]1C=C2c3cccc4[nH]cc(c34)C[C@H]2N(Cc2ccccc2C)C1 [Compound 99a, (6aR,9S)—N,N-diethyl-7-(2-methylbenzyl)-4,6,6a,7,8,9-hexahydroindolo[4,3-fg]quinoline-9-carboxamide]
5-HT2A receptor
  Ki: 802 nM

## [2H]C([2H])(c1cccc(OC)c1)N1C[C@@H](C(=O)N(CC)CC)C=C2c3cccc4[nH]cc(c34)C[C@H]21 [Compound 68a, (6aR,9S)—N,N-diethyl-7-((3-methoxyphenyl)methyl-d2)-4,6,6a,7,8,9-hexahydroindolo[4,3-fg]quinoline-9-carboxamide]
5-HT2A receptor
  Ki: > 1230 nM

## CN1C[C@H](C(=O)N2CCCC2)C=C2c3cccc4[nH]cc(c34)C[C@H]21 [Int22]
In vitro [1]
  Intrinsic clearance (Clint): <9.6 µL/min/mg
  half-life (t1/2): >145 min

## CCCN(CC)C(=O)[C@H]1C=C2c3cccc4[nH]cc(c34)C[C@H]2N(Cc2cccc(OC)c2)C1 [Compound 93a, (6aR,9S)—N-ethyl-7-(3-methoxybenzyl)-N-propyl-4,6,6a,7,8,9-hexahydroindolo[4,3-fg]quinoline-9-carboxamide]
5-HT2A receptor
  Ki: 230 nM

## COc1cccc(CN2C[C@H](C(=O)N3CCCC3)C=C3c4cccc5[nH]cc(c45)C[C@H]32)c1 [Compound 91, ((6aR,9R)-7-(3-methoxybenzyl)-4,6,6a,7,8,9-hexahydroindolo[4,3-fg]quinolin-9-yl)(pyrrolidin-1-yl)methanone]
5-HT2A receptor
  Ki: 128 nM

## [2H]C([2H])([2H])Oc1cccc(CN2C[C@H](C(=O)N(CC)CC)C=C3c4cccc5[nH]cc(c45)C[C@H]32)c1 [Compound 56, (6aR,9R)—N,N-diethyl-7-(3-(methoxy-d3)benzyl)-4,6,6,7,8,9-hexahydroindolo[4,3-fg]quinoline-9-carboxamide]
In vitro [1]
  Intrinsic clearance (Clint): 113.3 µL/min/mg
  half-life (t1/2): 12.2 min
In vitro [2]
  Intrinsic clearance (Clint): 223.3 µL/min/mg
  half-life (t1/2): 6.2 min
In vitro [3]
  Intrinsic clearance (Clint): 224.5 µL/min/mg
  half-life (t1/2): 6.2 min

## CCN(CC)C(=O)[C@@H]1C=C2c3cccc4[nH]cc(c34)C[C@H]2N(Cc2cnco2)C1 [Compound 75, (6aR,9R)—N,N-diethyl-7-(oxazol-5-ylmethyl)-4,6,6a,7,8,9-hexahydroindolo[4,3-fg]quinoline-9-carboxamide]
In vitro [1]
  microsomal CLint: 35 µL/min/mg
  half-life: 39.6 min
In vitro [2]
  microsomal CLint: 83.1 µL/min/mg
  half-life: 16.7 min
In vitro [3]
  microsomal CLint: 56.3 µL/min/mg
  half-life: 24.6 min
5-HT2A receptor
  Ki: 12.8 nM

## [2H]C(c1cccc(OC)c1)N1C[C@@H](C(=O)N(CC)CC)C=C2c3cccc4[nH]cc(c34)C[C@H]21 (stereo partly drawn) [Compound 96a, (6aR,9S)—N,N-diethyl-7-((3-methoxyphenyl)methyl-d)-4,6,6a,7,8,9-hexahydroindolo[4,3-fg]quinoline-9-carboxamide]
5-HT2A receptor
  Ki: 1000 nM

## CCN(C)C(=O)[C@H]1C=C2c3cccc4[nH]cc(c34)C[C@H]2N(CC2CCCC2)C1 [Compound 103a, (6aR,9S)-7-(cyclopentylmethyl)-N-ethyl-N-methyl-4,6,6a,7,8,9-hexahydroindolo[4,3-fg]quinoline-9-carboxamide]
5-HT2A receptor
  Ki: 511 nM

## CCN(C)C(=O)[C@H]1C=C2c3cccc4[nH]cc(c34)C[C@H]2N(Cc2ccccc2)C1 [Compound 85a, (6aR,9S)-7-benzyl-N-ethyl-N-methyl-4,6,6a,7,8,9-hexahydroindolo[4,3-fg]quinoline-9-carboxamide]
In vitro [1]
  microsomal CLint: 156 µL/min/mg
  half-life: 8.9 min
In vitro [2]
  microsomal CLint: 848 µL/min/mg
  half-life: 1.6 min
In vitro [3]
  microsomal CLint: 400 µL/min/mg
  half-life: 3.5 min
5-HT2A receptor
  Ki: 516 nM

## COc1cccc(CN2C[C@@H](C(=O)N3CCCC3)C=C3c4cccc5[nH]cc(c45)C[C@H]32)c1 [Compound 91a, ((6aR,9S)-7-(3-methoxybenzyl)-4,6,6a,7,8,9-hexahydroindolo[4,3-fg]quinolin-9-yl)(pyrrolidin-1-yl)methanone]
5-HT2A receptor
  Ki: > 1230 nM

## CC[C@@H](C)NC(=O)[C@H]1C=C2c3cccc4[nH]cc(c34)C[C@H]2N(Cc2ccccc2)C1 [Compound 95a, (6aR,9S)-7-benzyl-N—((R)-sec-butyl)-4,6,6a,7,8,9-hexahydroindolo[4,3-fg]quinoline-9-carboxamide]
5-HT2A receptor
  Ki: 123 nM

## COc1cccc(CN2C[C@@H](C(=O)N3[C@@H](C)C[C@@H]3C)C=C3c4cccc5[nH]cc(c45)C[C@H]32)c1 [Compound 94a, ((2S,4S)-2,4-dimethylazetidin-1-yl)((6aR,9S)-7-(3-methoxybenzyl)-4,6,6a,7,8,9-hexahydroindolo[4,3-fg]quinolin-9-yl)methanone]
5-HT2A receptor
  Ki: 1210 nM

## CCN(CC)C(=O)[C@H]1C=C2c3cccc4[nH]cc(c34)C[C@H]2N(Cc2ccc3ccccc3c2)C1 [Compound 100a, (6aR,9S)—N,N-diethyl-7-(naphthalen-2-ylmethyl)-4,6,6a,7,8,9-hexahydroindolo[4,3-fg]quinoline-9-carboxamide]
5-HT2A receptor
  Ki: > 1230 nM

## CN(C)C(=O)[C@H]1C=C2c3cccc4[nH]cc(c34)C[C@H]2N(Cc2ccccc2)C1 [Compound 102a, (6aR,9S)-7-benzyl-N,N-dimethyl-4,6,6a,7,8,9-hexahydroindolo[4,3-fg]quinoline-9-carboxamide]
5-HT2A receptor
  Ki: 349 nM

## CCN(CC)C(=O)[C@H]1C=C2c3cccc4[nH]cc(c34)C[C@H]2N(Cc2cccc3ccccc23)C1 [Compound 101a, (6aR,9S)—N,N-diethyl-7-(naphthalen-1-ylmethyl)-4,6,6a,7,8,9-hexahydroindolo[4,3-fg]quinoline-9-carboxamide]
5-HT2A receptor
  Ki: 750 nM

## [2H]C(c1cccc(OC)c1)N1C[C@H](C(=O)N(CC)CC)C=C2c3cccc4[nH]cc(c34)C[C@H]21 (stereo partly drawn) [Compound 96, (6aR,9R)—N,N-diethyl-7-((3-methoxyphenyl)methyl-d)-4,6,6a,7,8,9-hexahydroindolo[4,3-fg]quinoline-9-carboxamide]
5-HT2A receptor
  Ki: 3.99 nM

## CC[C@@H](C)NC(=O)[C@H]1C=C2c3cccc4[nH]cc(c34)C[C@H]2N(Cc2ccccc2)C1 [Compound 88a, (6aR,9S)-7-benzyl-N—((R)-sec-butyl)-4,6,6a,7,8,9-hexahydroindolo[4,3-fg]quinoline-9-carboxamide]
In vitro [1]
  microsomal CLint: 302 µL/min/mg
  half-life: 4.6 min
In vitro [2]
  microsomal CLint: 837 µL/min/mg
  half-life: 1.7 min
In vitro [3]
  microsomal CLint: 830 µL/min/mg
  half-life: 1.7 min
5-HT2A receptor
  Ki: 191 nM

## CCN(CC)C(=O)[C@H]1C=C2c3cccc4[nH]cc(c34)C[C@H]2N(Cc2cccc(C)c2)C1 [Compound 98a, (6aR,9S)—N,N-diethyl-7-(3-methylbenzyl)-4,6,6a,7,8,9-hexahydroindolo[4,3-fg]quinoline-9-carboxamide]
5-HT2A receptor
  Ki: 910 nM

## CCN(CC)C(=O)[C@H]1C=C2c3cccc4[nH]cc(c34)C[C@H]2N(Cc2ccc(F)c(F)c2)C1 [Compound 54a, (6aR,9S)-7-(3,4-difluorobenzyl)-N,N-diethyl-4,6,6a,7,8,9-hexahydroindolo[4,3-fg]quinoline-9-carboxamide]
5-HT2A receptor
  Ki: 289 nM

## CCN(CC)C(=O)[C@H]1C=C2c3cccc4[nH]cc(c34)C[C@H]2N(Cc2cccc(F)c2)C1 [Compound 52a, (6aR,9S)—N,N-diethyl-7-(3-fluorobenzyl)-4,6,6a,7,8,9-hexahydroindolo[4,3-fg]quinoline-9-carboxamide]
5-HT2A receptor
  Ki: > 1230 nM

## C[C@H]1C[C@H](C)N1C(=O)[C@H]1C=C2c3cccc4[nH]cc(c34)C[C@H]2N(Cc2ccccc2)C1 [Compound 87a, ((6aR,9S)-7-benzyl-4,6,6a,7,8,9-hexahydroindolo[4,3-fg]quinolin-9-yl)((2S,4S)-2,4-dimethylazetidin-1-yl)methanone]
5-HT2A receptor
  Ki: 1140 nM

## O=C([C@H]1C=C2c3cccc4[nH]cc(c34)C[C@H]2N(Cc2ccccc2)C1)N1CCCC1 [Compound 84a, ((6aR,9S)-7-benzyl-4,6,6a,7,8,9-hexahydroindolo[4,3-fg]quinolin-9-yl)(pyrrolidin-1-yl)methanone]
In vitro [1]
  microsomal CLint: 154 µL/min/mg
  half-life: 9 min
In vitro [2]
  microsomal CLint: 784 µL/min/mg
  half-life: 1.8 min
In vitro [3]
  microsomal CLint: 257 µL/min/mg
  half-life: 5.4 min
5-HT2A receptor
  Ki: > 1230 nM

## CCN(C)C(=O)[C@H]1C=C2c3cccc4[nH]cc(c34)C[C@H]2N(Cc2cccc(OC)c2)C1 [Compound 92a, (6aR,9S)—N-ethyl-7-(3-methoxybenzyl)-N-methyl-4,6,6a,7,8,9-hexahydroindolo[4,3-fg]quinoline-9-carboxamide]
5-HT2A receptor
  Ki: > 1230 nM
